Measured values published in patent US20210188763A1, “COMPOUNDS AND METHODS FOR HEMATOPOIETIC REGENERATION” (The Regents of the University of California, priority 2017, published 2021).

Key:
Rac1 [1] = test: Rac1 activation assay (G-LISA); format: cell-based; conditions: cells incubated 2 minutes at 1 and 10 μg/mL
Protocol: Cell cultures were incubated with each tested compound for 2 minutes at concentrations of 1 and 10 μg/mL, after which the cells were tested for Rac1 activation using a G-LISA activation assay. The cells were lysed and the lysates introduced into wells containing Rac-GTP-binding protein, then sequentially incubated with anti-Rac1 antibody and a horseradish peroxidase-linked secondary antibody. The amount of horseradish peroxidase was then quantitated to evaluate the Rac1 activation potency of each compound studied.

PTPRS = molecular target: T1, PTPRS (Homo sapiens, UniProt Q13332); test: In vitro phosphatase assay (modified Malachite Green Assay); format: biochemical; conditions: substrate titration of PTPσ; Vmax inhibited, Km constant
T1 construct: The two interacellular catalytic domains (D1D2) of PTPRS were cloned into a pET28a vector; made in house; host or cells: E. coli BL21
T1 sequence (Q13332 1304-1948 limits assumed): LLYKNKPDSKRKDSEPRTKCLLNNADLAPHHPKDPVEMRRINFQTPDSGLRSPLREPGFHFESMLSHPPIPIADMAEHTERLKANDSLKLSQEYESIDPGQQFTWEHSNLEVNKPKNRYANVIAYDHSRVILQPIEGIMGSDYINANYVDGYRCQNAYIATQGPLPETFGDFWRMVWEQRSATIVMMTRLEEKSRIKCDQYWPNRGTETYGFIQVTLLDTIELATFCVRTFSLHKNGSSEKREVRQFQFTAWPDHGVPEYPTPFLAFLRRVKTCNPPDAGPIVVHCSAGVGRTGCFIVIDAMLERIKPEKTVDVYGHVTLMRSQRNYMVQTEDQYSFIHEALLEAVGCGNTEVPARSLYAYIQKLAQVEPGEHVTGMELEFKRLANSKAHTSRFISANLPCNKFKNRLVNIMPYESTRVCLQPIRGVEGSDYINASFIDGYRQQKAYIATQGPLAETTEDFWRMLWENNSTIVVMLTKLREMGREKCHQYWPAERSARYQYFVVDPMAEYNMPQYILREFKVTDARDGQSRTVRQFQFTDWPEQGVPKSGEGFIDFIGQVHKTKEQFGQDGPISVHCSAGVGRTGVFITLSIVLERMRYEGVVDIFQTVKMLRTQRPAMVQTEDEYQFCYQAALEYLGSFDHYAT
Protocol: The two interacellular catalytic domains (D1D2) of PTPRS were cloned into a pET28a vector and overexpressed in E. coli BL21 and purified as described in Jeon T J, et al. Structure of the Catalytic Domain of Protein Tyrosine Phosphatase Sigma in the Sulfenic Acid Form. Molecules and Cells. 2013; 36(1):55-61. doi:10.1007/s10059-013-0033-x. Enzymatic activity of PTPRS was assayed using a modified version of the Malachite Green Assay (described in Lorenz U. Protein Tyrosine Phosphatase Assays. Current protocols in immunology/edited by John E Coligan. [et al]. 2011; CHAPTER: Unit-11.7. doi:10.1002/0471142735.im1107s93) and the Tyrosine Phosphatase Assay Kit (Promega Coorperation). Unless stated otherwise, standard assays were carried out using 50 nM PTPRS protein in 1× Buffer (10 mM Tris, 5 mM MgCl2, 10 mM NaCl, 0.02% Tween) and Tyr Phosphopeptide as substrate (100 uM for FIG. 1 and 50-1200 uM in FIG. 2). […]
For IC50 determination, rates normalized relative to uninhibited controls (DMSO) were plotted against compound concentration and fitted using a four-parameter nonlinear regression curve fit ((y=[(A−D)(1+{xC−1}B)−1]+D), (Prism 6.0, Graphpad Software). For mechanism studies and determination of the enyzme's Km and Vmax, data were analyzed using a nonlinear regression fit according to classical Mechaelis-Menten kinetics model Y=Vmax*X/(Km+X) (Prism 6.0, Graphpad Software).

irradiated mice = test: Survival and HSC regeneration of irradiated mice; format: in vivo; conditions: for Survival of irradiated mice: lethal dose irradiation (750 cGy)
Excerpt: (§1) A) CFU-GEMMs produced by TSF media vs. TSF+GJ001 (p=0.001). B) Percentage of BM KSL cells expressing Rac1GTP (p=0.008). C) Survival of mice irradiated with 750 cGy followed by treatment with DJ001 or vehicle (p=0.0007). D) % BM KSL cells (blue) and % ckit^+sca-1^−lin^− progenitors (gray) at day +21 in irradiated mice.
10 week old female C57BL/6 mice were irradiated with 750 cGy TBI, which is lethal for approximately 50% of C57BL/6 mice by day +30 (LD50/30), using a Shepherd Cesium-137 irradiator. Twenty four hours post-irradiation, mice were administered daily subcutaneous injections of 5 mg/kg DJ001 (or DJ009) or vehicle in a volume of 100 μL for 10 days. DJ001 injections were prepared in PBS, 0.5% Tween 80, and 10% DMSO. Corresponding vehicle injections contained PBS, 10% DMSO and 0.5% Tween 80. PB complete blood counts were measured using a Hemavet 950 instrument (Drew Scientific) at day +10 post-irradiation. For hematopoietic analysis, BM cells were collected at day +10 post-irradiation. To study whether DJ001 increased survival rates through activation of RAC signaling, the RAC inhibitor, EHT1864 (Selleckchem), was dissolved in PBS and administered intraperitoneally, 40 mg/kg every other day, to 750 cGy irradiated mice until day +10. For DJ009 studies, ten week old female C57BL/6 mice were irradiated with 550 cGy TBI and then given daily subcutaneous injections of 5 mg/kg of DJ009 or vehicle in a volume of 100 μL for 3 days. DJ009 injections were prepared in PBS, 0.5% Tween 80, and 10% DMSO. Vehicle injections contained 10% DMSO and 0.5% Tween 80. At day +3 post 550 cGy irradiation, we collected PB and BM cells for CBCs and hematopoietic analysis. Exemplary results of this assay are depicted in FIG. 8 and FIG. 17.

Rac1 [2] = test: Rac1 signaling in HSCs (BM KSL cells expressing Rac1GTP); format: cell-based
Protocol: as §1
Intracellular flow cytometric analysis was performed on irradiated (300 cGy) or non-irradiated, sorted KSL cells after treatment with 1 μg/mL DJ001 or control (equal volumes of DMSO) for 24 hours. At 24 hours after irradiation, cells were fixed with 4% PFA for 10 min, followed by permeabilization using 0.25% saponin in PBS. Cells were washed again and stained with antibody at the recommended concentrations for 30 minutes at room temperature. Intracellular antibodies and phospho-flow antibodies used were: FITC-conjugated anti-BCL-XL (Abcam #ab26148), active RAC1-GTP antibody (NewEast Biosciences #26903), and anti-PAK1 (phospho S144)+PAK2 (phospho S141)+PAK3 (phospho S154) antibody (Abcam #ab40795).

[3] = tested on: hematopoietic colony formation; test: Hematopoietic colony formation (CFC assay); format: cell-based
Protocol: CFC assays (colony-forming unit-granulocyte monocyte (CFU-GM), burst-forming unit-erythroid (BFU-E), and colony-forming unit-granulocyte erythroid monocyte megakaryocyte (CFU-GEMM) were performed using MethoCult GF M3434 (Stemcell Technologies), as we have previously described^1,5. For all in vitro assays, BM CD34^−KSL cells, KSL cells, and Lin cells were cultured in TSF media (IMDM, 10% FBS, 1% pen-strep, 20 ng/mL recombinant mouse Thrombopoietin (TPO), 125 ng/mL recombinant mouse Stem Cell Factor (SCF), 50 ng/mL recombinant mouse Flt3 ligand) and treated as described. Recombinant mouse SCF, Flt-3 ligand, and TPO were purchased from R&D Systems. For competitive repopulation assays, BM cells were isolated from donor 10-12 week old female CD45.2^+ mice. Recipient 10 week old female CD45.1^+ B6.SJL mice were irradiated with 950 cGy TBI using a Cs137 irradiator, and donor BM cells were administered via tail vein injection along with a competing dose of 1×10^5 non-irradiated host BM cells. Multilineage donor hematopoietic cell engraftment was measured in the PB by flow cytometry.

## O=C(/C=C\Nc1cccc([N+](=O)[O-])c1)c1ccccc1 [DJ001, (Z)-3-((3-nitrophenyl)amino)-1-phenylprop-2-en-1-one]
Rac1 [1]
  Rac1 Activation: yes
PTPRS
  Mechanism of inhibition: classical noncompetitive inhibitor
Irradiated mice; irradiated mice
  HSC regeneration in irradiated mice: accelerates HSC regeneration
Irradiated mice
  Survival of irradiated mice: dramatically increases mice survival
Rac1 [2]
  Rac1 signaling in HSCs: activates Rac1 signaling

## O=C(/C=C\Nc1cccc(F)c1)c1ccccc1 [DJ002]
Rac1 [1]
  Rac1 Activation: no

## O=C(/C=C\Nc1cccc(C(F)(F)F)c1)c1ccccc1 [DJ003]
Rac1 [1]
  Rac1 Activation: yes
Irradiated mice
  Survival of irradiated mice: improves survival of irradiated mice
[3]
  Hematopoietic colony formation: increases hematopoietic colony formation

## Cc1cccc(N/C=C\C(=O)c2ccccc2)c1 [DJ004]
Rac1 [1]
  Rac1 Activation: yes

## COc1cccc(N/C=C\C(=O)c2ccccc2)c1 [DJ005]
Rac1 [1]
  Rac1 Activation: no

## CC(=O)c1cccc(N/C=C\C(=O)c2ccccc2)c1 [DJ006]
Rac1 [1]
  Rac1 Activation: no

## O=C(/C=C\Nc1cccc(-c2ccccc2)c1)c1ccccc1 [DJ007]
Rac1 [1]
  Rac1 Activation: no

## CN(C)c1cccc(N/C=C\C(=O)c2ccccc2)c1 [DJ008]
Rac1 [1]
  Rac1 Activation: no

## O=C(/C=C\Nc1cc(F)cc(F)c1)c1ccccc1 [DJ009, (Z)-3-((3,5-difluorophenyl)amino)-1-phenylprop-2-en-1-one]
Rac1 [1]
  Rac1 Activation: yes

## Cc1cc(C)cc(N/C=C\C(=O)c2ccccc2)c1 [DJ011]
Rac1 [1]
  Rac1 Activation: yes

## COc1cc(N/C=C\C(=O)c2ccccc2)cc(OC)c1 [DJ012]
Rac1 [1]
  Rac1 Activation: yes

## O=C(/C=C\Nc1ccccc1)c1ccccc1 [DJ013]
Rac1 [1]
  Rac1 Activation: yes

## CC(C)(C)[Si](C)(C)Oc1cccc(N/C=C\C(=O)c2ccccc2)c1 [DJ014]
Rac1 [1]
  Rac1 Activation: yes

## O=C(/C=C\Nc1cccc(O)c1)c1ccccc1 [DJ015]
Rac1 [1]
  Rac1 Activation: yes

## CN(C)S(=O)(=O)c1cccc(N/C=C\C(=O)c2ccccc2)c1 [DJ016]
Rac1 [1]
  Rac1 Activation: no

## CCCCN/C=C\C(=O)c1ccccc1 [DJ017]
Rac1 [1]
  Rac1 Activation: no

## O=C(/C=C\NCc1ccco1)c1ccccc1 [DJ018]
Rac1 [1]
  Rac1 Activation: no

## CC(C)(C)N/C=C\C(=O)c1ccccc1 [DJ019]
Rac1 [1]
  Rac1 Activation: no
